Test results from PubChem BioAssay AID434987 (Southern Research Specialized Biocontainment Screening …, 2010).
Active and inactive are the calls of the source. How the calls were made is not given here.

System: M. tuberculosis H37Rv growth inhibition with meropenem
Assay: dose response, H37Rv, with and without meropenem (AID 434987);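 further: growth over 7 days at 37 °C before Alamar Blue read on day 9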
[1] = M. tuberculosis H37Rv growth inhibition, measured here: IC50 without meropenem
[2] = M. tuberculosis H37Rv growth inhibition, measured here: IC90 without meropenem
[3] = measured here: IC90 with meropenem

| SMILES | IC50 | IC50 [1] [µM] | IC90 [2] [µM] | IC90 [3] [µM] |
| --- | --- | --- | --- | --- |
| CN1c2ccccc2C(=O)NC1c1ccc([N+](=O)[O-])s1 (configuration not stated) | 3.09 µM | 20.7 | 38.4 | 33.3 |
| CCn1cc(C(=O)O)c(=O)c2cc(F)c(N3CCN(C(=S)NC(=O)c4ccccc4C)CC3)cc21 | 10.9 µM (inactive) | 19.5 | 28.3 | 16 |
| OC(COC(c1ccccc1)c1ccccc1)CN1CCN(c2cccc(Cl)c2)CC1 (configuration not stated) | 44.6 µM (inactive) | 47.4 | > 100 | > 100 |
| CCCCN1C(=O)c2ccc(C(=O)Nc3cccc(C)c3C)cc2C1=O | > 100 µM (inactive) | > 100 | > 100 | > 100 |
| COc1ccc(/C=N\NC(=O)c2sc(N)nc2C)cc1OC | > 100 µM (inactive) | > 100 | > 100 | > 100 |
| CCC(C)NCCOCCOc1ccc(Cl)c2ccccc12 (configuration not stated) | 32 µM (inactive) | 38.3 | 53.3 | 50.7 |
| NCCS | > 100 µM (inactive) | > 100 | > 100 | > 100 |
| CCOC(=O)c1c(C)[nH]c(C)c1C(=O)COC(=O)/C=C/c1ccc(OC(F)F)cc1 | 61.1 µM (inactive) | 98.3 | > 100 | 91.4 |
| COc1cc(/C=N/NC(=S)Nc2cccc(S(=O)(=O)N(C)C)c2)cc(OC)c1O | > 100 µM (inactive) | > 100 | > 100 | > 100 |
| C/C(CC(=O)Nc1c(C)cc(C)cc1C)=N\NC(=O)c1cnccn1 | 5.21 µM | 28.7 | 58.5 | 17.4 |
| O=C(OC(C(=O)Nc1ccc(Cl)cc1C(F)(F)F)c1ccccc1)C1=COCCO1 (configuration not stated) | 1.23 µM | > 100 | > 100 | > 100 |
| COc1cc(/C=C/C(=O)OCC(=O)Nc2cc(C)c(C)cc2[N+](=O)[O-])ccc1O | 43 µM (inactive) | 92.8 | > 100 | > 100 |
| COc1ccc2nc(NC(=O)NC3CCCCC3)sc2c1 | > 100 µM (inactive) | > 100 | > 100 | > 100 |
| COc1c(F)c(F)c(C(=O)Nc2c(C)cc(Br)cc2C)c(F)c1F | 4.58 µM | > 100 | > 100 | > 100 |
| COc1ccc(NC(C)C(=O)N/N=C/c2ccc([N+](=O)[O-])s2)cc1 (configuration not stated) | 2.17 µM (inactive) | 3.12 | 4.8 | 4.79 |
| Cc1nc(/N=C(\N)NC(=O)c2ccccc2)nc2ccccc12 | – | > 100 | > 100 | > 25 |
| CCCC(C(=O)N1CCOCC1)N1C(=O)C2C3C=CC(C3)C2C1=O (configuration not stated) | > 100 µM (inactive) | > 100 | > 100 | > 100 |
| COc1ccc(C(=O)/C=C/c2cccs2)c(OC(=O)c2cccc([N+](=O)[O-])c2)c1 | 29.5 µM (inactive) | 54.8 | 85.2 | > 100 |
| CC1=NN(c2ccccc2)C(=O)/C1=C/c1c(O)[nH]c(=S)[nH]c1=O | > 100 µM (inactive) | > 100 | > 100 | > 100 |

| SMILES | IC50 | IC50 [1] [µM] | IC90 [2] [µM] | IC90 [3] [µM] |
| --- | --- | --- | --- | --- |
| O=C(COc1ccc(Cl)cc1)OCC(=O)N1CCCCCC1 | 45.5 µM (inactive) | > 100 | > 100 | > 100 |
| CC(C)(C)C1=Nn2c(nnc2-c2ccccc2F)SC1 | 17.3 µM | > 100 | > 100 | 78.3 |
| COc1ccc(C(=O)Nc2ccc(C(=O)OCC(=O)c3ccccc3)cc2)cc1 | > 100 µM (inactive) | > 100 | > 100 | > 100 |
| O=C(CCNc1ccccc1)c1cccc([N+](=O)[O-])c1 | 11.7 µM | > 100 | > 100 | 45.8 |
| CC(C(=O)Nc1sc2c(c1C(=O)NCc1ccco1)CCCC2)N1C(=O)c2ccccc2C1=O (configuration not stated) | 46.1 µM (inactive) | > 100 | > 100 | > 100 |
| O=C(O)CCCN1C(=O)/C(=C\c2ccc(-c3nc4ccccc4s3)o2)SC1=S | 24.3 µM | 60.4 | > 100 | > 100 |
| N#C/C(C(=O)NCc1ccco1)=C1/SC=C(c2ccccc2)N1c1ccccc1 | > 100 µM (inactive) | > 100 | > 100 | > 100 |
| COC(=O)Cn1c2ccccc2c2nc(C)sc21 | 18.9 µM (inactive) | 25.4 | 44.4 | 27.8 |
| Cn1c(=S)[nH]c2sc3c(c2c1=O)CCC(C(C)(C)C)C3 (configuration not stated) | 38 µM (inactive) | 79 | > 100 | > 100 |
| O=C(C1=C[C@H](c2ccc(Br)cc2)C[C@H](OCc2ccc(CO)cc2)O1)N1CCN(Cc2ccc3c(c2)OCO3)CC1 | 50.4 µM (inactive) | > 100 | > 100 | > 100 |
| CN(C)c1ccc(N=Nc2cccc3ccoc23)cc1 | > 100 µM (inactive) | > 100 | > 100 | > 100 |
| Cc1ccc(C)c(NC(=O)COC(=O)c2ccc(S(=O)(=O)N3CCCCC3)cc2)c1 | > 100 µM (inactive) | > 100 | > 100 | > 100 |
| COc1ccc(C(=O)Nc2cccc3c2CCCC3)c(OC)c1 | 23.4 µM | > 100 | > 100 | > 100 |
| COc1cc2c(C(=O)N3CCN(c4ccccc4C)CC3)c(C)oc2cc1Br | > 100 µM (inactive) | > 100 | > 100 | > 100 |
| COc1cccc(NC(=S)Nc2cc(C)cc(C)n2)c1 | 6.41 µM | > 100 | > 100 | > 100 |
| CCc1cc2c(-c3ccccc3)cc(=O)oc2cc1OC(C)C(C)=O (configuration not stated) | 45.6 µM (inactive) | 47.4 | 53.8 | 48.5 |
| O=C(COc1ccccc1)NNC(=O)c1cc2ccccc2oc1=O | 15.3 µM | > 100 | > 100 | > 100 |
| COC(=O)[C@@]1(Cc2ccc(F)cc2)[C@H]2c3cc(C(=O)N(C)C)n(Cc4ccc(OC)c(OC)c4)c3C[C@H]2CN1C(=O)c1ccccc1 | > 100 µM (inactive) | > 100 | > 100 | > 100 |
| COc1ccc(NC(=O)COC(=O)Cc2ccc(-c3ccccc3)cc2)c(OC)c1 | > 100 µM (inactive) | > 100 | > 100 | > 100 |

| SMILES | IC50 | IC50 [1] [µM] | IC90 [2] [µM] | IC90 [3] [µM] |
| --- | --- | --- | --- | --- |
| O=C(c1ccc(-c2ccc(Cl)cc2)o1)N1CCN(S(=O)(=O)c2cccs2)CC1 | 95.2 µM (inactive) | > 100 | > 100 | 99.6 |
| O=C(NCc1cccs1)c1cc(-c2ccccc2)nc2ccccc12 | > 100 µM (inactive) | > 100 | > 100 | > 100 |
| COC(=O)/C(=C\Nc1ccc(Cl)cc1Cl)NC(=O)c1ccc(Cl)cc1Cl | > 100 µM (inactive) | > 100 | > 100 | > 100 |
| Cc1ccc2nc(-c3ccc(NC(=S)NC(=O)C(C)C)cc3)sc2c1 | > 100 µM (inactive) | > 100 | > 100 | > 100 |
| Cc1nn(C)c(C)c1NC(=O)CCCSc1nc(-c2ccco2)cc(C(F)(F)F)n1 | > 100 µM (inactive) | > 100 | > 100 | > 100 |
| COc1ccccc1N1CCN(CC(=O)Nc2cc(F)ccc2C)CC1 | 47 µM (inactive) | 58.6 | > 100 | 91 |
| CC(C)NC(=S)NN=C1c2ccccc2-c2ccccc21 | 35.7 µM (inactive) | 58.2 | > 100 | > 100 |
| CC(C)(C)c1ccc(OCc2ccc(C(=O)N/N=C3\CC4CC=CC34)cc2)cc1 (configuration not stated) | 26.2 µM (inactive) | 31.2 | 46.5 | 45.3 |
| Cc1nc(S/C(=C\c2ccc(OCc3ccccc3Cl)cc2)C(=O)O)n[nH]1 | > 100 µM (inactive) | > 100 | > 100 | > 100 |
| CC(=O)c1c(C)[nH]c(C(=O)OCC(=O)Nc2nnc(-c3ccccc3)o2)c1C | 4.19 µM | > 100 | > 100 | > 100 |
| Cc1c(OCc2ccc(C(=O)O)cc2)ccc2c(-c3ccccc3)cc(=O)oc12 | 1.42 µM | 46.2 | 96.7 | 2.09 |
| CCc1nnc(NC(=O)c2ccc3nc(CC)c(CC)nc3c2)s1 | 46.6 µM (inactive) | > 100 | > 100 | > 100 |
| CCn1nc(C)c([N+](=O)[O-])c1C(=O)NNC(=O)c1ccccc1Cl | > 100 µM (inactive) | > 100 | > 100 | > 100 |
| CCCc1cc(NC(=O)COC(=O)c2nccnc2N)n(-c2ccccc2)n1 | 49.3 µM (inactive) | 68.4 | > 100 | 50.8 |
| O=C(Nc1nnc(-c2ccco2)o1)c1ccc(S(=O)(=O)N2CCOCC2)cc1 | 24.5 µM | 63.5 | > 100 | > 100 |
| CC/C(=N\NC(=S)NC(C)C)c1ccc(OC)c(OC)c1 | 12.9 µM (inactive) | 20.2 | 24.7 | 15.5 |
| COc1ccc2ccccc2c1/C=N/NC(=O)c1cccc(C)c1 | 64.9 µM (inactive) | > 100 | > 100 | > 100 |
| CCOC(=O)N1CCN(C(=O)CSc2nnc(COc3ccccc3)o2)CC1 | 7.33 µM | 21.5 | 72.9 | 18.4 |
| O=c1c2c(nc3n1CCCCC3)sc1c(O)c(Br)ccc12 | 48 µM (inactive) | > 100 | > 100 | > 50 |
